Experimental data taken from ChEMBL document CHEMBL1147299, “12-epi-teuscordonin and other neoclerodanes from Teucrium bicolor” (J Nat Prod, 1989).

What follows are compounds tested on Artemia salina (assay: Toxicity to Artemia salina after 24 hrs). Settings: in vivo.
Type: organism-based

Row | Structure (SMILES) | LC50
1 | C[C@@H]1C[C@@H](O)[C@@]23COC(=O)[C@@H]2CCC[C@@H]3[C@@]12C[C@@H](c1ccoc1)OC2=O | > 500 ppm
2 | CC(=O)OC[C@@]12[C@@H](OC(C)=O)C[C@@H](C)[C@]3(C[C@H](c4ccoc4)OC3=O)[C@H]1CCC[C@]21CO1 [MONTANIN C] | 66.4 ppm
3 | C[C@@H]1C[C@@H]2OC(=O)C3=C2[C@H](CCC3)[C@@]12C[C@@H](c1ccoc1)OC2=O [TEUCVIN] | > 500 ppm
